Several values for one entry are separate records, joined by “and”; a condition that tells them apart may be missing. Equal entries are not always repeated. Activity calls are given as the source filed them. The calls are words filed in the database; no cut-off is given here.
Columns and labels:
Mus musculus [1] = assay: The compound was tested for anticonvulsant activity in Maximal electroshock seizure test for 30 min in mice(ip); active at 30 mg/kg; assay type: functional, organism-based; parameters: dose 30 mg/kg
Mus musculus [2] = assay: The compound was tested for anticonvulsant activity in Maximal electroshock seizure test (MES) for 4 hr in mice(ip); no activity or toxicity at 300 mg/kg; assay type: functional, organism-based; parameters: dose 300 mg/kg
Mus musculus [3] = assay: Anticonvulsant activity in subcutaneous pentylenetetrazole seizure test for 30 min in mice; No activity/toxicity at 300 mg/kg.; assay type: functional, organism-based; parameters: dose 300 mg/kg
Mus musculus [4] = assay: The anticonvulsant activity in subcutaneous pentylenetetrazole seizure test (sc Met) for 4 hr in mice; no activity or no toxicity at 300 mg/kg; assay type: functional, organism-based; parameters: dose 300 mg/kg
[5] = The compound was tested for neurologic toxicity (rotarod) test for 30 min in mice; active at 30 mg/kg; assay type: organism-based; parameters: dose 30 mg/kg; conditions: mouse, in vivo, 0.5 h
[6] = The compound was tested for neurologic toxicity (rotarod) test for 4 hours in mice; no activity or no toxicity at 300 mg/kg; assay type: organism-based; parameters: dose 300 mg/kg; conditions: mouse, in vivo
Mus musculus [7] = assay: Time of peak effect in mice following i.p. administration.; assay type: functional
Mus musculus [8] = assay: Anticonvulsant activity in Maximal electroshock seizure test at 100 mg/kg i.p. in mice.; assay type: functional, organism-based; parameters: dose 100 mg/kg
Mus musculus [9] = assay: The compound was tested to inhibit 50% of induced maximal electroshock seizure in mice on ip administration.; assay type: functional
Mus musculus [10] = assay: Inhibition of s.c. pentylenetetrazole induced seizure in mice following i.p. administration.; assay type: functional
Mus musculus [11] = assay: (§1) The compound was determined for the dose (mg/kg) by rotarod test at the time of peak neurotoxic effect in mice on ip administration.; assay type: functional
Mus musculus [12] = assay: The compound was tested for anticonvulsant activity in subcutaneous pentylenetetrazole seizure test (sc Met) for 30 min in mice; active at 300 mg/kg; assay type: functional, organism-based; parameters: dose 300 mg/kg
[13] = The compound was tested for neurologic toxicity (rotarod) test for 30 min in mice; active at 100 mg/kg; assay type: organism-based; parameters: dose 100 mg/kg; conditions: mouse, in vivo, 0.5 h
[14] = The compound was tested for time of peak effect (TPE) in hours for its toxicity in mice on ip administration.; assay type: organism-based; conditions: mouse, in vivo
[15] = The compound was tested for neurologic toxicity (rotarod) test for 4 hours in mice; active at 30 mg/kg; assay type: organism-based; parameters: dose 30 mg/kg; conditions: mouse, in vivo
Rattus norvegicus [16] = assay: The compound was tested for the effective oral dose to inhibit 50% of the anticonvulsant in rats.; assay type: functional
Mus musculus [17] = assay: The compound was tested for anticonvulsant activity in Maximal electroshock seizure test (MES) for 4 hr in mice(ip); active at 300 mg/kg; assay type: functional, organism-based; parameters: dose 300 mg/kg
Sigma 2 receptor = assay: Affinity on sigma 2 receptor using [3H]- DTG as radioligand
[18] = target: Sigma non-opioid intracellular receptor 1 (Homo sapiens) (UniProt Q99720); assay: Ratio between the Ki(nM)values of sigma-2 and sigma-1; assay type: functional
Sequence of Sigma non-opioid intracellular receptor 1 (Homo sapiens) (Q99720 whole entry): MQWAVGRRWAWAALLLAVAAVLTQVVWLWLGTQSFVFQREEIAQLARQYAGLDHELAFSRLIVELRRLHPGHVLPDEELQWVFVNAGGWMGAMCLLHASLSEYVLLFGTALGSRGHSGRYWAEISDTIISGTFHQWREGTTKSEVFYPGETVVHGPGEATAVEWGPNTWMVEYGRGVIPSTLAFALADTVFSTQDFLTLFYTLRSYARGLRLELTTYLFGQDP

[19] = The compound was tested for neurologic toxicity (rotarod) test for 30 min in mice; no activity or no toxicity at 300 mg/kg; assay type: organism-based; parameters: dose 300 mg/kg; conditions: mouse, in vivo, 0.5 h
[20] = as §1; assay type: ADME, organism-based; conditions: mouse, in vivo
[21] = The compound was tested for neurologic toxicity (rotarod) test for 4 hours in mice; active at 300 mg/kg; assay type: organism-based; parameters: dose 300 mg/kg; conditions: mouse, in vivo
Mus musculus [22] = assay: The compound was tested for anticonvulsant activity in Maximal electroshock seizure test for 30 min in mice(ip); active at 300 mg/kg; assay type: functional, organism-based; parameters: dose 300 mg/kg
Mus musculus [23] = assay: The compound was tested for anticonvulsant activity in Maximal electroshock seizure test (MES) for 4 hr in mice(ip); active at 100 mg/kg; assay type: functional, organism-based; parameters: dose 100 mg/kg
Mus musculus [24] = assay: The compound was tested to inhibit 50% of induced maximal electroshock seizure in mice on ip administration; assay type: functional
Mus musculus [25] = organism: Mus musculus; assay: Protective index value is the ratio between TD50 and ED50 values.; assay type: functional
Mus musculus [26] = assay: The compound was tested for anticonvulsant activity in subcutaneous pentylenetetrazole seizure test (sc Met) for 4 hr in mice; active at 300 mg/kg; assay type: functional, organism-based; parameters: dose 300 mg/kg
Rattus norvegicus [27] = assay: The compound was tested for the toxic dose on oral administration.; assay type: functional
Rattus norvegicus [28] = organism: Rattus norvegicus; assay: Protective index value is the ratio between ED50 and TD50; assay type: functional

Compound	MES (Mus musculus [2])	scMet (Mus musculus [3])	scMet (Mus musculus [4])	Rotarod toxicity [6]	Activity (Mus musculus [7]) [h]	MES (Mus musculus [8])	ED50 (Mus musculus [9]) [mg/kg]	ED50 (Mus musculus [10]) [mg/kg]	Toxicity [14] [h]	ED50 (Rattus norvegicus [16]) [mg/kg]	Rotarod toxicity [19]	further results
CCC(=O)c1ccc2c(c1)sc(=O)n2CCCN1CCCCC1	active at 30 mg/kg	No activity or no toxicity at 300 mg/kg	No activity or no toxicity at 300 mg/kg	active at 30 mg/kg								MES (Mus musculus [1]): active at 30 mg/kg; Rotarod toxicity [5]: active at 30 mg/kg
CCC(=O)c1ccc2c(c1)sc(=O)n2CCN1CCOCC1	No activity or toxicity at 300 mg/kg		active at 300 mg/kg	active at 100 mg/kg	0.25	No activity or toxicity at 300 mg/kg	62.1	> 300	0.25			TD50 (Mus musculus [11]): 239 mg/kg; scMet (Mus musculus [12]): active at 300 mg/kg; Rotarod toxicity [13]: active at 100 mg/kg
CCC(=O)c1ccc2c(c1)oc(=O)n2CCCN1CCCCC1	No activity or toxicity at 300 mg/kg	No activity or no toxicity at 300 mg/kg	No activity or no toxicity at 300 mg/kg			No activity or toxicity at 300 mg/kg						Rotarod toxicity [5]: active at 30 mg/kg; Rotarod toxicity [15]: active at 30 mg/kg
NC(=O)N1c2ccccc2C=Cc2ccccc21 [CARBAMAZEPINE]							8.8	> 100		8.5		
CCCC(CCC)C(=O)O [VALPROIC ACID]								149		490		
CN(C)CCn1c(=O)oc2cc(C(=O)c3ccccc3)ccc21		No activity or no toxicity at 300 mg/kg	No activity or no toxicity at 300 mg/kg		0.25	active at 300 mg/kg	84.4	> 120	0.25		active at 300 mg/kg	MES (Mus musculus [17]): active at 300 mg/kg; Ki (Sigma 2 receptor): > 10 µM; Ratio [18]: > 27; TD50 [20]: 99 mg/kg; Rotarod toxicity [21]: active at 300 mg/kg
CCC(=O)c1ccc2nc(O)oc2c1	active at 300 mg/kg	No activity or no toxicity at 300 mg/kg	No activity or no toxicity at 300 mg/kg	No activity or no toxicity at 300 mg/kg							No activity or no toxicity at 300 mg/kg	MES (Mus musculus [22]): active at 300 mg/kg
CCCCCc1ccc2nc(O)sc2c1					0.25	active at 100 mg/kg		90.5	0.5	50.5		MES (Mus musculus [23]): active at 100 mg/kg; ED50 (Mus musculus [24]): 58.9 mg/kg; PI (Mus musculus [25]): 2.3 and 1.5; scMet (Mus musculus [12]): active at 300 mg/kg; scMet (Mus musculus [26]): active at 300 mg/kg; TD50 (Rattus norvegicus [27]): > 120 mg/kg; PI (Rattus norvegicus [28]): 2.4; Rotarod toxicity [13]: active at 100 mg/kg; TD50 [20]: 137 mg/kg; Rotarod toxicity [21]: active at 100 mg/kg
CCC(=O)c1ccc2nc(O)sc2c1	No activity or toxicity at 300 mg/kg	No activity or no toxicity at 300 mg/kg	No activity or no toxicity at 300 mg/kg	No activity or no toxicity at 300 mg/kg		No activity or toxicity at 300 mg/kg					No activity or no toxicity at 300 mg/kg	

Source: ChEMBL document CHEMBL1131315, “Synthesis and anticonvulsant activity of 2(3H)-benzoxazolone and 2(3H)-benzothiazolone derivatives” (J Med Chem, 1998)
